Measurements: US20220395464A1, “ORALLY ADMINISTERED SOLID DOSAGE FORM DRUG” (ASCENTAWITS PHARMACEUTICALS, LTD., priority 2019, published 2022)
Read-outs that look alike come from different tables or passages of the source.

Assay: Pharmacokinetics after single intravenous drip infusion, plasma LC-MS/MS
Assay type: in vivo, Philippine macaques
Settings: for concentration at 0.17 hr / concentration at 0.25 hr / concentration at 0.5 hr / concentration at 0.75 hr / concentration at 1 hr: intravenous, AST-3424-D6 intravenous drip infusion 0.42 mg/kg
Description: AST-3424 and AST-3424-D6 (i.e. the compound of formula I) were administered to Philippine macaques by intravenous drip infusion, and blood samples were collected at different appointed times. LC-MS/MS was used to determine concentrations of the test substances in plasma of the Philippine macaques after administration, and relevant pharmacokinetic parameters were calculated.
Preparation method: 0.447 ml of AST-3424 (0.2 mg/ml) and 0.481 ml of AST-3424-D6 (0.2 mg/ml) were added into 104.272 ml of the dissolvent, respectively, and mixed for 5 minutes to obtain colorless and clarified solutions with pH 7.0.
The four male Philippine macaques were purchased from Guangxi Xiongsen Primate Development Experiment Co., Ltd. All Philippine macaques were healthy with qualified medical examination and no abnormality. Three of animals were used for the experiment, and one of them was used to prepare blank plasma.
About 0.8 ml of blood samples were collected through femoral vein and anticoagulated with heparin sodium. Appointed times of blood collection were before administration, 0.17, 0.25, 0.5, 0.75, 1, 2, and 4 hours after administration.
The blood samples were placed on ice after collection. Next, plasma samples were separated by centrifugation, and centrifugation conditions were 3500 rpm for 10 minutes at 4° C. Then, the collected plasma samples were stored at −80° C. until analysis. The plasma samples were analyzed by LC-MS/MS by an analysis department of an experimental institution. Besides, Lower limit of quantifications (LLOQ) of AST-3424 and AST-3424-D6 detection were 1 ng/ml. The accuracy of analysis results of an accompanying standard curve and a quality control samples all met the relevant requirements of biological analysis (the accuracy of the quality control samples exceeding 66.7% was between 85˜115%) in a process of the sample detection.
According to average blood concentration data of each group at each appointed time, the pharmacokinetic parameters of the compounds were respectively computed by a pharmacokinetic computing software, a non-compartmental model. In addition, the pharmacokinetic parameters were AUC0-t, AUC0-∞, MRT0-∞, Cmax, Tmax, t1/2, etc. In the case of the concentrations of the samples whose concentration being lower than a lower limit of quantification, the following schemes were used to compute the pharmacokinetic parameters. The samples sampled before reaching Cmax shall be computed as zero value, while the samples sampled after reaching Cmax shall be computed as non-quantifiable (marked as “BLQ”).
After a single intravenous infusion of the compounds AST-3424 and AST-3424-D6 was administered to the Philippine macaques, the whole blood samples of the corresponding animals were collected at the appointed times. Next, the whole blood samples were processed and biologically analyzed to obtain concentrations of the compounds in the plasma at the different appointed times. Results of the assay were listed in Table 14 below, and corresponding means of the plasma-drug concentration-time curves are shown in FIG. 3.
According to the plasma-drug concentration data of each drug group, the pharmacokinetic parameters of each compound group were computed using the non-compartmental model of the pharmacokinetic computing software. The pharmacokinetic

[1] = male, Philippine macaque, plasma, 0.42 mg/kg, individual animals 101, 102, 103, read-out: Plasma-drug concentration
[2] = male, Philippine macaque, plasma, 0.42 mg/kg, read-out: Plasma-drug concentration, mean

[2H]C([2H])([2H])N(C(=O)c1cccc(Oc2cc([C@H](C)OP(=O)(N3CC3)N3CC3)ccc2[N+](=O)[O-])c1)C([2H])([2H])[2H] [AST-3424-D6]
Vz (AST-3424-D6 single intravenous infusion, Table 15 heading 0.58 mg/kg (text: 0.42 mg/kg), plasma, individual animals 101, 102, 103): 0.23679 L/kg
Integral area under the drug-time curve (AUC) compared with AST-3424, in words (Philippine macaques, FIG. 3, 0.42 mg/kg AST-3424-D6 vs 0.58 mg/kg AST-3424): smaller
AUC(0-t) (male, Philippine macaque, cynomolgus monkey, plasma, iv, 0.42 mg/kg, AST-3424-D6 single intravenous infusion, Table 15 heading 0.58 mg/kg (text: 0.42 mg/kg), plasma, individual animals 101, 102, 103, read-out: AUC(0−t)): 286 ng·h/mL
AUC(0-inf) (male, Philippine macaque, cynomolgus monkey, plasma, iv, 0.42 mg/kg, AST-3424-D6 single intravenous infusion, Table 15 heading 0.58 mg/kg (text: 0.42 mg/kg), plasma, individual animals 101, 102, 103, read-out: AUC(0−∞)): 334 ng·h/mL
clearance (male, Philippine macaque, cynomolgus monkey, plasma, iv, 0.42 mg/kg, AST-3424-D6 single intravenous infusion, Table 15 heading 0.58 mg/kg (text: 0.42 mg/kg), plasma, individual animals 101, 102, 103, read-out: Cl (converted)): 20.9 mL/min/kg
Cmax (male, Philippine macaque, cynomolgus monkey, plasma, iv, 0.42 mg/kg, AST-3424-D6 single intravenous infusion, Table 15 heading 0.58 mg/kg (text: 0.42 mg/kg), plasma, individual animals 101, 102, 103, read-out: Cmax): 485 ng/mL
MRT last (male, Philippine macaque, cynomolgus monkey, plasma, iv, 0.42 mg/kg, AST-3424-D6 single intravenous infusion, Table 15 heading 0.58 mg/kg (text: 0.42 mg/kg), plasma, individual animals 101, 102, 103, read-out: MRT(0−t)): 9 min
MRT inf (male, Philippine macaque, cynomolgus monkey, plasma, iv, 0.42 mg/kg, AST-3424-D6 single intravenous infusion, Table 15 heading 0.58 mg/kg (text: 0.42 mg/kg), plasma, individual animals 101, 102, 103, read-out: MRT(0−∞)): 9.6 min
half-life (male, Philippine macaque, cynomolgus monkey, plasma, iv, 0.42 mg/kg, AST-3424-D6 single intravenous infusion, Table 15 heading 0.58 mg/kg (text: 0.42 mg/kg), plasma, individual animals 101, 102, 103, read-out: T1/2 (converted)): 7.8 min
Vd (male, Philippine macaque, cynomolgus monkey, plasma, iv, 0.42 mg/kg, AST-3424-D6 single intravenous infusion, Table 15 heading 0.58 mg/kg (text: 0.42 mg/kg), plasma, individual animals 101, 102, 103, read-out: Vss): 0.198 L/kg
Vd (male, Philippine macaque, cynomolgus monkey, plasma, iv, 0.42 mg/kg, AST-3424-D6 single intravenous infusion, Table 15 heading 0.58 mg/kg (text: 0.42 mg/kg), plasma, individual animals 101, 102, 103, read-out: Vz): 0.234 L/kg
AUC(0-t) (male, Philippine macaque, cynomolgus monkey, plasma, iv, 0.42 mg/kg, AST-3424-D6 single intravenous infusion, Table 15 heading 0.58 mg/kg (text: 0.42 mg/kg), plasma, read-out: AUC(0−t), Mean): 302 ± 22.6 ng·h/mL
AUC(0-inf) (male, Philippine macaque, cynomolgus monkey, plasma, iv, 0.42 mg/kg, AST-3424-D6 single intravenous infusion, Table 15 heading 0.58 mg/kg (text: 0.42 mg/kg), plasma, read-out: AUC(0−∞), Mean): 315 ± 27.2 ng·h/mL
Cmax (male, Philippine macaque, cynomolgus monkey, plasma, iv, 0.42 mg/kg, AST-3424-D6 single intravenous infusion, Table 15 heading 0.58 mg/kg (text: 0.42 mg/kg), plasma, read-out: Cmax, Mean): 522 ± 46 ng/mL
MRT last (male, Philippine macaque, cynomolgus monkey, plasma, iv, 0.42 mg/kg, AST-3424-D6 single intravenous infusion, Table 15 heading 0.58 mg/kg (text: 0.42 mg/kg), plasma, read-out: MRT(0−t), Mean): 8.4 ± 0.6 min
MRT inf (male, Philippine macaque, cynomolgus monkey, plasma, iv, 0.42 mg/kg, AST-3424-D6 single intravenous infusion, Table 15 heading 0.58 mg/kg (text: 0.42 mg/kg), plasma, read-out: MRT(0−∞), Mean): 9 min
half-life (male, Philippine macaque, cynomolgus monkey, plasma, iv, 0.42 mg/kg, AST-3424-D6 single intravenous infusion, Table 15 heading 0.58 mg/kg (text: 0.42 mg/kg), plasma, read-out: T1/2, Mean (converted)): 7.2 min
Tmax (male, Philippine macaque, cynomolgus monkey, plasma, iv, 0.42 mg/kg, AST-3424-D6 single intravenous infusion, Table 15 heading 0.58 mg/kg (text: 0.42 mg/kg), plasma, read-out: Tmax, Mean): 18.6 min
Vd (male, Philippine macaque, cynomolgus monkey, plasma, iv, 0.42 mg/kg, AST-3424-D6 single intravenous infusion, Table 15 heading 0.58 mg/kg (text: 0.42 mg/kg), plasma, read-out: Vss, Mean): 0.202 L/kg
concentration at 0.17 hr [1]: 416 ng/mL
concentration at 0.17 hr [2]: 490 ng/mL
concentration at 0.25 hr [1]: 479 ng/mL
concentration at 0.25 hr [2]: 505 ng/mL
concentration at 0.5 hr [1]: 485 ng/mL
concentration at 0.5 hr [2]: 502 ng/mL
concentration at 0.75 hr [1]: 113 ng/mL
concentration at 0.75 hr [2]: 109 ng/mL
concentration at 1 hr [1]: 41 ng/mL
concentration at 1 hr [2]: 33.8 ng/mL
clearance (male, cynomolgus monkey, plasma, iv, 0.42 mg/kg, AST-3424-D6 single intravenous infusion, Table 15 heading 0.58 mg/kg (text: 0.42 mg/kg), plasma, read-out: Cl, Mean (converted)): 22.3 mL/min/kg
Vd (male, cynomolgus monkey, plasma, iv, 0.42 mg/kg, AST-3424-D6 single intravenous infusion, Table 15 heading 0.58 mg/kg (text: 0.42 mg/kg), plasma, read-out: Vz, Mean): 0.235 L/kg
